From patent publication US12533323B2, “Slow-release formulation” (GLYCOSCIENCE, S.L., priority 2021, dated 2026)

Experiment: Dissolution of trans-PMD glucovanillin conjugate in water
Assay type: physicochemical
Conditions: solid 50 mg in water 0.1 ml
Source text: The resultant solution was cooled to room temperature and purified by chromatography over silica by gradient elution using 1:1 EtOAc/hexane to remove residual diol followed by 1:10 MeOH/dichloromethane to afford the title compound as an odourless white solid (0.73 g, 74%).

dissolution in water: readily dissolve
Structure (SMILES): COc1cc(C2O[C@H]3C[C@@H](C)CCC3C(C)(C)O2)ccc1O[C@@H]1O[C@H](CO)[C@@H](O)[C@H](O)[C@H]1O (mixture of isomers) [Example 2, Racemic trans-PMD Glucovanillin Conjugate]
